Measurements published in patent publication US9320748B2, “Immunologically useful arginine salts” (Novartis AG, priority 2012, dated 2016).
Values joined by “and” are separate entries in the source; they are usually repeats but may differ in a detail not shown here. Equal values may be shown once. Where a name gives a salt, the structure may show the parent alone.

Experiments:
[1] = Photo-stability of bulk solid; type: physicochemical; settings: irradiated 1.2 million lux-hours, 40° C., 36 hours
Method: The L-arginine salt formed via the above method was tested for thermal- and photo-stability. For comparative purposes, the free base and the ammonium salt were also tested.
The bulk ammonium and arginine salts and the bulk free base of the compound of formula (I) were tested for photo-stability by being irradiated (1.2 million lux-hours), at 40° C. for a period of 36 hours.

[2] = Thermal-stability at physiological pH; type: physicochemical; settings: for degradation (thermal-stability): physiological pH (7.4), 80° C., 7 days
Method: The L-arginine salt formed via the above method was tested for thermal- and photo-stability. For comparative purposes, the free base and the ammonium salt were also tested. The bulk ammonium and arginine salts and the bulk free base of the compound of formula (I) were also tested for thermal-stability at physiological pH (7.4) by heating at 80° C. for 7 days. […] This renders the ammonium salt unsuitable for use in pharmaceutical formulation and long term storage.

[3] = tested on: respiratory syncytial virus (RSV); assay: Anti-RSV titers after immunisation with trimeric F glycoprotein; type: in vivo, Balb/C mice; settings: 3 weeks after first dose; 1, 5, 50 μg SMIP adsorbed to Al—H, 3 μg F glycoprotein
Method: Trimeric F glycoprotein (3 μg) of respiratory syncytial virus (RSV) is formulated with the compound of formula (I) as a free base or as the arginine salt (1 μg, 5 μg, 50 μg) adsorbed to Al—H. For comparison the IC31™ adjuvant is also tested. Balb/C mice (6 per group) are immunized at days 0 and 21 and immune responses are assessed.

in vivo = settings: mouse, im, 4 mg/kg
Method: A single dose of two different formulations (one containing the free base and the other the L-arginine salt of the compound of formula (I)) adsorbed to Al—H in 10 mM histidine buffer and in the presence of 3 MenB antigens were administered intramuscularly to mice at a dose of 4 mg/kg.

[4] = Photo-stability in 50 mM phosphate buffer solution; type: physicochemical; settings: 50 mM phosphate buffer pH 6.8; irradiated 1.2 million lux-hours, 40° C., 36 hours
Method: The L-arginine salt formed via the above method was tested for thermal- and photo-stability. For comparative purposes, the free base and the ammonium salt were also tested. The arginine salt and the bulk free base of the compound of formula (I) were also tested for photo-stability in a solution of 50 mM phosphate buffer (pH 6.8) by being irradiated (1.2 million lux-hours), at 40° C. for a period of 36 hours. […] The ammonium salt was not tested.

[5] = Effect of Al—H adsorption on serum peak and injection-site residence; type: in vivo; settings: adsorbed on Al—H versus non-adsorbed; mice and rats
Text: Adsorption of the compound of formula (I) on Al—H reduced its peak serum concentrations and increased residence times at sites of intramuscular injection, as found for mice and rats preclinical species. This contributes greatly on modifying and controlling the level of systemic exposure avoiding the potential problem of proinflammatory cytokines in the blood, improving safety and/or tolerability of the compounds of formula (I).

[6] = Dynamic vapour sorption (DVS) water sorption; type: physicochemical; settings: 90% relative humidity
Method: Dynamic vapour sorption (DVS) experiments were conducted on the L-arginine salt obtained via the above method. […] The free base is also shown for comparison (●). DSC analysis of the arginine salt following DVS treatment was also conducted and the results pre- (♦) and post-DVS (▪) treatment are shown in FIG. 4. The free base is also shown for comparison (●). […] No form change is noted by the XRPD.

[7] = Adsorption to aluminium hydroxide (RP-HPLC); type: physicochemical; settings: 1 mg/ml on 3 mg/ml aluminium hydroxide
Method: The adsorption efficiency of the compound was determined by RP-HPLC as being 99%.

[8] = Adsorption to aluminium phosphate adjuvant; type: physicochemical
Method: Adsorption of a L-arginine salt of the compound of formula (I) to a commercially-available aluminium phosphate adjuvant yielded an adsorption efficiency of 97% (as found by recovering the compound of formula (I) on desorption). […] However, the adsorption remained >90% when the aluminium phosphate adjuvant was treated with 10 mM potassium phosphate.
One formulation was prepared with 0.4 mg/ml of the compound of formula (I) of the L-arginine salt and 3 mg/ml of aluminium phosphate (expressed as Al^3+ concentration), 10 mM of histidine buffer (pH 6.5). Aluminium phosphate was treated overnight with various concentrations of potassium phosphate (10 mM, 50 mM, 100 mM, 250 mM and 500 mM) before the compound of formula (I) of the arginine salt was incubated with the aluminium phosphate.

[9] = Adsorption to calcium phosphate adjuvant; type: physicochemical; settings: pH 6.4, no histidine buffer, 1.12 mg/ml Ca2+
Method: Adsorption of a L-arginine salt of the compound of formula (I) to a commercially-available calcium phosphate adjuvant was studied at pH 6.4, without histidine buffer. Two formulations are prepared, both with 1.12 mg/ml Ca^2+ but with either 0.25 mg/ml or 0.125 mg/ml of the arginine salt. Adsorption was around 90% for both formulations.

## Cc1cc(OCCOCCOCCP(=O)(O)O)ccc1CCc1cnc2c(N)nc3cc(CCC(=O)O)ccc3c2c1 [ammonium salt]
[1]
  degradation (photo-stability): 4.6%

## Cc1cc(OCCOCCOCCP(=O)(O)O)ccc1CCc1cnc2c(N)nc3cc(CCC(=O)O)ccc3c2c1 [free base, 3-(5-amino-2-(2-methyl-4-(2-(2-(2-phosphonoethoxy)ethoxy)ethoxy)phenethyl)benzo[f][1,7]naphthyridin-8-yl)propanoic acid]
[2]
  degradation (thermal-stability): 18.1%
[3]
  anti-RSV titers versus Al—H alone: increased compared to Al—H alone
In vivo
  AUC(0-t): 4.54 µM·h
  Cmax: 453 nM
  Tmax: 0.67 h
  half-life: 8.48 h
[4]
  degradation (photo-stability in solution): 23.1%
[1]
  degradation (photo-stability): 12.36%
[5]
  peak serum concentrations: reduced
  residence times at sites of intramuscular injection: increased

## Cc1cc(OCCOCCOCCP(=O)(O)O)ccc1CCc1cnc2c(N)nc3cc(CCC(=O)O)ccc3c2c1 [arginine salt, arginine salt of 3-(5-amino-2-(2-methyl-4-(2-(2-(2-phosphonoethoxyl)ethoxy)ethoxy)phenethyl)benzo[f][1,7]naphthyridin-8-yl)propanoic acid]
[2]; high temperatures (80° C.), as in autoclaving
  stability at high temperatures, compared with other form: more stable than the ammonium salt
[2]
  degradation (thermal-stability): 0.1%
[6]
  water taken on (DVS): approximately 18%
[6]; 4 g sample
  water taken on (DVS): approximately 13.71%
[3]
  anti-RSV titers versus Al—H alone: increased compared to Al—H alone
  anti-RSV titers, arginine salt versus free base: slightly higher titers than the free base
[7]
  adsorption efficiency: 99%
[4]
  degradation (photo-stability in solution): 9.8%
[1]
  degradation (photo-stability): 9.7%
[8]; aluminium phosphate pre-treated with 10 mM potassium phosphate, listed as L-arginine salt
  % Adsorption: 93 ± 1%
[8]; aluminium phosphate pre-treated with 50 mM potassium phosphate
  % Adsorption: 81.6 ± 0.1%
[8]; aluminium phosphate pre-treated with 100 mM potassium phosphate
  % Adsorption: 60 ± 2%
[8]; aluminium phosphate pre-treated with 250 mM potassium phosphate
  % Adsorption: 52 ± 0.1%
[8]; aluminium phosphate pre-treated with 500 mM potassium phosphate
  % Adsorption: 65 ± 4%
[8]; aluminium phosphate, no potassium phosphate pre-treatment (0 mM), 0.4 mg/ml compound, 3 mg/ml Al3+, 10 mM histidine pH 6.5, listed as L-arginine salt
  % Adsorption: 97% and 97 ± 1%
[9]; 0.125 mg/ml arginine salt
  Adsorption: around 90%
[9]; 0.25 mg/ml arginine salt
  Adsorption: around 90%
